The values that follow are results of earlier work, collected in article PMC11054727 (Viruses, 2024).

Where two headings read alike, the source gives them in different places.

For data set [1], the system named is SARS-CoV-2. The arrangement: method as in ref 23. The following applies: Table S1, experimental antiviral activity; read-out: Observed EC50; cited from earlier work.
The subject of data set [2] is SARS-CoV-2. The conditions noted are these: cited from earlier work.
Data set [3] relates to SARS-CoV-2. The conditions noted are these: cited from earlier work. The source holds these as a separate data set.
The test system of another data set is SARS-CoV-2 Spike. The following applies: read-out: Spike-mediated fusion activity EC50; cited from earlier work.
In another data set the test system is hCoV-OC43. The arrangement: method as in ref 2 = [2]. The following applies: read-out: EC50 hCoV-OC43 infections; cited from earlier work.
For data set [4], the system named is Nsp5 Main protease (Mpro). The following applies: cited from earlier work.
The subject of a further data set is SARS-CoV-2 pseudovirus. On the set-up: method as in ref 48 = [48]. The conditions noted are these: read-out: EC50 pseudovirus entry; cited from earlier work.
[5] abbreviates: experimental CPE data, read-out: EC50 CPE.

`COc1ccc(-n2c3cc(=NC(C)C)c(Nc4cccc(F)c4)cc-3nc3ccccc32)cc1` [15f]: in the data set with SARS-CoV-2 [1], the EC50 is 14.6 µM.

As for `CC(C)N=c1cc2n(-c3ccc(Cl)cc3)c3ccccc3nc-2cc1NCc1ccc(Cl)cc1` [7k], the EC50 with SARS-CoV-2 [1] was 12.4 µM.

`C=C[C@@]1(C)CC(=O)[C@]2(O)[C@@]3(C)[C@@H](O)CCC(C)(C)[C@@H]3[C@H](OC(=O)CCN(C)C)[C@H](OC(C)=O)[C@@]2(C)O1.Cl` [NKH477]: the “extent of inhibition in CPE assays” value in the data set with SARS-CoV-2 [2] (Vero E6 cells) is given as “partial inhibitors”. Turning to `CC(C)N=c1cc2n(-c3ccc(Cl)cc3)c3ccccc3nc-2cc1Nc1ccc(OC(F)(F)F)cc1` [7i], the EC50 in the data set with SARS-CoV-2 [1] is 10 µM. For the molecule `CCC(CC)COC(=O)[C@H](C)N[P@](=O)(OC[C@H]1O[C@@](C#N)(c2ccc3c(N)ncnn23)[C@H](O)[C@@H]1O)Oc1ccccc1` [Remdesivir], the “extent of inhibition in CPE assays” value in the data set with SARS-CoV-2 [2] was “full inhibitors”.

Consider `COc1ccc(Nc2cc3nc4ccccc4n(-c4ccc(Cl)cc4)c-3cc2=N)c(OC)c1` [6e], for which the EC50 in the data set on SARS-CoV-2 [1] was 16.1 µM. Take `Clc1ccc(Nc2cc3nc4ccccc4n(-c4ccc(Cl)cc4)c-3cc2=NC2CC2)cc1` [7a]: the EC50 in the data set with SARS-CoV-2 [1] was 141 µM. Turning to `COc1ccc(Nc2cc3nc4ccccc4n(-c4ccc(Cl)cc4)c-3cc2=NC(C)C)cc1` [7g], in the data set on SARS-CoV-2 [1], the concentration giving a half-maximal response (EC50) is 16.6 µM.

In the case of `COc1ccc(-n2c3cc(=NC4CC4)c(Nc4ccc(F)cc4)cc-3nc3ccccc32)cc1` [15h], the EC50 in the data set with SARS-CoV-2 [1] was 33.1 µM. For the molecule `CC(C)N=c1cc2n(-c3ccc(Cl)cc3)c3ccccc3nc-2cc1Nc1ccccc1` [7c], the EC50 in the data set on SARS-CoV-2 [1] was 40.9 µM. Take `CC(C)/N=c1\cc2n(-c3ccc(Cl)cc3)c3ccccc3nc-2cc1Nc1ccc(Cl)cc1` [compound 2, Clofazimine]: the EC50 was 0.31 µM with SARS-CoV-2 [2] (read-out: consensus EC50 antiviral activity); 0.01 µM in the data set with SARS-CoV-2 [3] (same study as hCoV-OC43, read-out: EC50 SARS-CoV-2 infections); 2.56 µM in the data set on SARS-CoV-2 Spike; 0.35 µM in the data set with hCoV-OC43. For the same molecule, the “extent of inhibition in infection assays” value in the data set on SARS-CoV-2 [3] (Vero E6, Huh7, and Caco-2 cells) is given as “full inhibitor”. For the same molecule, the “Nsp5 Main protease (Mpro) activity” value in data set [4] is listed as “zero activity”.

For the molecule `CCOC(=O)c1c(CSc2ccccc2)n(C)c2cc(Br)c(O)c(CN(C)C)c12` [compound 1, Arbidol], the EC50 in the data set with SARS-CoV-2 [1] was 10 µM; with SARS-CoV-2 [2] (setting [5]) it was 5.6 µM. Besides, the “extent of inhibition in CPE assays” value in the data set with SARS-CoV-2 [2] is “partial inhibitor”. Take `CC(C)N=c1cc2n(-c3ccc(F)cc3)c3ccccc3nc-2cc1Nc1ccc(Cl)cc1` [15a]: in the data set with SARS-CoV-2 [1], the EC50 is 29.6 µM. Turning to `CN(C)CCOc1ccc(/C(=C(/CCCl)c2ccccc2)c2ccccc2)cc1` [compound 3, Toremifene], the values for the EC50 with SARS-CoV-2 [3] (read-out: EC50 live SARS-CoV-2 infections) and with SARS-CoV-2 pseudovirus were 3.58 µM and 1.92 µM, respectively.

Regarding `COc1ccc(Nc2cc3nc4ccccc4n(-c4ccc(Cl)cc4)c-3cc2=N)cc1` [6d], the EC50 with SARS-CoV-2 [1] is 154 µM.

With `CCOC(=O)c1c(CS(=O)(=O)c2ccc(Cl)cc2)n(C)c2cc(Br)c(O)c(CN(C)C)c12` [1b], the EC50 in the data set with SARS-CoV-2 [2] (setting [5]) was 29.5 µM. For `COc1ccc(-n2c3cc(=NC(C)C)c(Nc4ccc(F)cc4)cc-3nc3ccccc32)cc1` [15g], in the data set on SARS-CoV-2 [1], the EC50 is 10 µM. In the case of `CC(C)N=c1cc2n(-c3ccc(F)cc3)c3ccccc3nc-2cc1Nc1ccc(F)cc1` [15b], the EC50 in the data set with SARS-CoV-2 [1] is 81.1 µM. With `CC(CN(C)C)CN1c2ccccc2CCc2ccccc21` (stereo not drawn) [trimipramine], in the data set with SARS-CoV-2 [2] (Vero E6 cells), the “extent of inhibition in CPE assays” value was “partial inhibitors”.

The EC50 is the midpoint of the concentration-response curve.
